# Experimental data reported in US9840478B2 (MERCK SHARP & DOHME CORP., priority 2013, dated 2017).
# System: HIV-1 (H9IIIB strain)
# Assay: Cell-based HIV infection assay using a reporter (Cell-Based), MT4-GFP cells
# Conditions: Human immunodeficiency virus 1, MT4-GFP cells infected with HIV-1 H9IIIB; 50% normal human serum; mean of at least two independent experiments; read-out: Cell-based IP
# Procedure, shortened: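 MT4-GFP cells (HIV LTR-driven GFP) infected 24 h with HIV-1 H9IIIB at low MOI, then washed and plated with compounds in RPMI + 50% normal human serum, 0.4% DMSO final. Green cells counted at 24 and 48 h; R0 = 48 h/24 h ratio, inhibition normalized to DMSO and triple-drug control; IC50 from 4-parameter fit.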
row,SMILES,IC50
1,"COC(=O)N[C@H](C(=O)Nc1cccc(F)c1CC[C@H]1CNC[C@H](C)N1S(C)(=O)=O)[C@@H](c1ccc(F)cc1)c1cc(F)cc(F)c1 [Example 99, (βS)-β-(3,5-difluorophenyl)-4-fluoro-N-(3-fluoro-2-{2-[(2S,6S)-6-methyl-1-(methylsulfonyl)piperazin-2-yl]ethyl}phenyl)-Nα-(methoxycarbonyl)-L-phenylalaninamide]",16 nM
2,"COC(=O)N[C@H](C(=O)Nc1cccc(F)c1CC[C@H]1CNC[C@H](C)N1S(=O)(=O)c1ccccc1)C(c1cccc(F)c1)c1cccc(F)c1 [Example 100, 3-fluoro-N-(3-fluoro-2-{2-[(2S,6S)-6-methyl-1-(phenylsulfonyl)piperazin-2-yl]ethyl}phenyl)-β-(3-fluorophenyl)-Nα-(methoxycarbonyl)-L-phenylalaninamide]",30 nM
3,"C[C@H]1CNC[C@H](CCc2c(F)cccc2NC(=O)[C@@H](N)[C@@H](c2ccc(Cl)cc2)c2cccc(F)c2)N1S(=O)(=O)c1ccccc1 [Example 101, (βS)-4-chloro-N-(3-fluoro-2-{2-[(2S,6S)-6-methyl-1-(phenylsulfonyl)piperazin-2-yl]ethyl}phenyl)-β-(3-fluorophenyl)-L-phenylalaninamide]",24 nM
4,"C[C@H]1CNC[C@H](CCc2c(F)cccc2NC(=O)[C@@H](N)[C@@H](c2ccc(F)cc2)C2CCOCC2)N1S(=O)(=O)c1ccccc1 [Example 102, (βR)-4-fluoro-N-(3-fluoro-2-{2-[(2S,6S)-6-methyl-1-(phenylsulfonyl)piperazin-2-yl]ethyl}phenyl)-β-(tetrahydro-2H-pyran-4-yl)-L-phenylalaninamide]",19 nM
5,"COC(=O)N[C@H](C(=O)Nc1cccc(F)c1CC[C@H]1CNC[C@@H](C)N1S(=O)(=O)c1ccccc1)[C@@H](c1ccc(F)cc1)C1CCOCC1 [Example 103, (βR)-4-fluoro-N-(3-fluoro-2-{2-[(2S,6R)-6-methyl-1-(phenylsulfonyl)piperazin-2-yl]ethyl}phenyl)-Nα-(methoxycarbonyl)-β-(tetrahydro-2H-pyran-4-yl)-L-phenylalaninamide]",8.6 nM
6,"C[C@@H]1CNC[C@H](CCc2c(F)cccc2NC(=O)[C@@H](N)[C@@H](c2ccc(F)cc2)C2CCOCC2)N1S(=O)(=O)c1ccccc1 [Example 104, (βR)-4-fluoro-N-(3-fluoro-2-{2-[(2S,6R)-6-methyl-1-(phenylsulfonyl)piperazin-2-yl]ethyl}phenyl)-β-(tetrahydro-2H-pyran-4-yl)-L-phenylalaninamide]",37 nM
7,"C[C@H]1CNC[C@H](CCc2c(F)cncc2NC(=O)[C@@H](N)[C@@H](c2ccc(F)cc2)c2cc(F)cc(F)c2)N1S(=O)(=O)c1ccccc1 [Example 105, (βS)-β-(3,5-difluorophenyl)-4-fluoro-N-(5-fluoro-4-{2-[(2S,6S)-6-methyl-1-(phenylsulfonyl)piperazin-2-yl]ethyl}pyridin-3-yl)-L-phenylalaninamide]",19 nM
8,"C[C@H]1CNC[C@H](CCc2c(F)cccc2NC(=O)[C@@H](N)[C@@H](c2ccc(F)cc2)c2cc(F)cc(F)c2)N1S(=O)(=O)c1cccc(F)c1 [Example 106, (βS)-β-(3,5-difluorophenyl)-4-fluoro-N-[3-fluoro-2-(2-{(2S,6S)-1-[(3-fluorophenyl)sulfonyl]-6-methylpiperazin-2-yl}ethyl)phenyl]-L-phenylalaninamide]",30 nM
9,"COC(=O)N[C@H](C(=O)Nc1cccc(F)c1CC[C@H]1CNC[C@H](C)N1S(=O)(=O)c1cccc(F)c1)[C@@H](c1ccc(F)cc1)c1cc(F)cc(F)c1 [Example 107, (βS)-β-(3,5-difluorophenyl)-4-fluoro-N-[3-fluoro-2-(2-{(2S,6S)-1-[(3-fluorophenyl)sulfonyl]-6-methylpiperazin-2-yl}ethyl)phenyl]-Nα-(methoxycarbonyl)-L-phenylalaninamide]",150 nM
10,"C[C@H]1CNC[C@H](CCc2c(F)cccc2NC(=O)[C@@H](N)[C@@H](c2ccc(Cl)cc2)c2cccc(F)c2)N1S(C)(=O)=O [Example 108, (βS)-4-chloro-N-(3-fluoro-2-{2-[(2S,6S)-6-methyl-1-(methylsulfonyl)piperazin-2-yl]ethyl}phenyl)-β-(3-fluorophenyl)-L-phenylalaninamide]",32 nM
11,"CC(C)[C@H](c1ccc(Cl)cc1)[C@H](N)C(=O)Nc1cccc(F)c1CC[C@H]1CNC[C@H](C)N1S(=O)(=O)c1ccccc1 [Example 109, (βR)-4-chloro-N-(3-fluoro-2-{2-[(2S,6S)-6-methyl-1-(phenylsulfonyl)piperazin-2-yl]ethyl}phenyl)-β-(1-methylethyl)-L-phenylalaninamide]",65 nM
12,"CC(C)[C@H](c1ccc(Cl)cc1)[C@H](N)C(=O)Nc1cccc(F)c1CC[C@H]1CNC[C@@H](C)N1S(=O)(=O)c1ccccc1 [Example 110, (βR)-4-chloro-N-(3-fluoro-2-{2-[(2S,6R)-6-methyl-1-(phenylsulfonyl)piperazin-2-yl]ethyl}phenyl)-β-(1-methylethyl)-L-phenylalaninamide]",74 nM
13,"COC(=O)N[C@H](C(=O)Nc1cccc(F)c1CC[C@H]1CNC[C@H](C)N1S(=O)(=O)c1ccccc1)[C@@H](c1ccc(Cl)cc1)C(C)C [Example 111, (βR)-4-chloro-N-(3-fluoro-2-{2-[(2S,6S)-6-methyl-1-(phenylsulfonyl)piperazin-2-yl]ethyl}phenyl)-Nα-(methoxycarbonyl)-β-(1-methylethyl)-L-phenylalaninamide]",34 nM
14,"COC(=O)N[C@H](C(=O)Nc1cccc(F)c1CC[C@H]1CNC[C@@H](C)N1S(=O)(=O)c1ccccc1)[C@@H](c1ccc(Cl)cc1)C(C)C [Example 112, (βR)-4-chloro-N-(3-fluoro-2-{2-[(2S,6R)-6-methyl-1-(phenylsulfonyl)piperazin-2-yl]ethyl}phenyl)-Nα-(methoxycarbonyl)-β-(1-methylethyl)-L-phenylalaninamide]",19 nM
15,"C[C@H]1CNC[C@H](CCc2c(F)cncc2NC(=O)[C@@H](N)[C@@H](c2ccc(Cl)cc2)c2cccc(F)c2)N1S(=O)(=O)c1ccccc1 [Example 113, (βS)-β-(4-chlorophenyl)-3-fluoro-N-(5-fluoro-4-{2-[(2S,6S)-6-methyl-1-(phenylsulfonyl)piperazin-2-yl]ethyl}pyridin-3-yl)-L-phenylalaninamide]",25 nM
16,"C[C@H]1CNC[C@H](CCc2c(F)cccc2NC(=O)[C@@H](N)[C@@H](c2ccc(F)cc2)C2CCOCC2)N1S(=O)(=O)C1CC1 [Example 114, (βR)-N-(2-{2-[(2S,6S)-1-(cyclopropylsulfonyl)-6-methylpiperazin-2-yl]ethyl}-3-fluorophenyl)-4-fluoro-β-(tetrahydro-2H-pyran-4-yl)-L-phenylalaninamide]",100 nM
17,"COC(=O)N[C@H](C(=O)Nc1cccc(F)c1CC[C@H]1CNC[C@H](C)N1S(=O)(=O)C1CC1)[C@@H](c1ccc(F)cc1)C1CCOCC1 [Example 115, (βR)-N-(2-{2-[(2S,6S)-1-(cyclopropylsulfonyl)-6-methylpiperazin-2-yl]ethyl}-3-fluorophenyl)-4-fluoro-Nα-(methoxycarbonyl)-β-(tetrahydro-2H-pyran-4-yl)-L-phenylalaninamide]",45 nM
18,"C[C@@H]1CNC[C@H](CCc2c(F)cccc2NC(=O)[C@@H](N)[C@@H](c2ccc(Cl)cc2)C2CCOCC2)N1S(=O)(=O)c1ccccc1 [Example 116, (βR)-4-chloro-N-(3-fluoro-2-{2-[(2S,6R)-6-methyl-1-(phenylsulfonyl)piperazin-2-yl]ethyl}phenyl)-β-(tetrahydro-2H-pyran-4-yl)-L-phenylalaninamide]",24 nM
